Assay results published in patent US10766896B2, “Imidazo[4,5-c] ring compounds containing guanidine substituted benzamide groups” (3M INNOVATIVE PROPERTIES COMPANY, priority 2017, dated 2020).
Where a name gives a salt, the structure may show the parent alone.

Test system: Human peripheral blood mononuclear cells (PBMC)
Assay: Cytokine Induction in Human Cells (PBMC; IFN-alpha by ELISA, IFN-gamma and TNF-alpha by multiplex bead assay)
Format: cell-based
Settings: 21-24 hrs culture, lowest concentration inducing cytokine at least 2× greater than negative control; for MEC to Induce Cytokine IFN-alpha: ELISA; for MEC to Induce Cytokine IFN-gamma / MEC to Induce Cytokine TNF-alpha: multiplex bead assay
Protocol: Interferon-alpha (IFN-alpha), interferon-gamma (IFN-gamma) and tumor necrosis factor-alpha (TNF-alpha) cytokine levels (pg/mL) were measured using the procedure ‘Cytokine Induction of Human Cells’ described below. The only difference was that for Examples 2, 3, and 4 the diluted compounds were transferred to the PBMCs to achieve final compound concentrations of 100, 33.3, 11.1, 3.7, 1.23, and 0.41 micromolar. The positive control wells contained imiquimod serially diluted to concentrations of 100, 33.3, 11.1, 3.7, 1.23, and 0.41 micromolar. For Example 5, the diluted compound and positive control (imiquimod) were individually transferred to the PBMCs to achieve final concentrations of 30, 10, 3.3, 1.1, 0.37, 0.12, 0.04, and 0.01 micromolar. According to the procedure described below, IFN-alpha cytokine levels (pg/mL) were measured by using the ELISA assay (human IFN-α, pan specific, Mabtech, Cincinnati, Ohio). IFN-gamma and TNF-alpha levels (pg/mL) were measured by using the multiplex bead assay (magnetic beads, R & D Systems Minneapolis, Minn.) according to the manufacturer's instructions. […] Specifically, the minimum effective concentration of each compound (micromolar) was determined as the lowest concentration of the compound that induced a measured cytokine response at a level ([…]) that was at least 2× greater than that observed with the negative control wells.
Cytokine Induction in Human Cells
Whole blood can be obtained from healthy human donors and collected by venipuncture into vacutainer tubes or syringes containing EDTA. Human peripheral blood mononuclear cells (PBMC) are purified from the whole blood by density gradient centrifugation. Histopaque 1077 (15 mL, Sigma, St. Louis, Mo.) is transferred to 6×50 mL sterile polypropylene conical tubes. The Histopaque is overlayed with 15-25 mL of blood diluted 1:2 in Hank's Balanced Salts Solution (HBSS) (Gibco, Life Technology, Grand Island N.Y.). The tubes are then centrifuged at 1370 rpm for 30 minutes at 20° C., with no brake (400×g, GH 3.8A Rotor).
The interface (buffy coat) containing the PBMC is collected and placed in a new sterile 50 mL conical polypropylene centrifuge tube. The PBMC are mixed with an equal volume of HBSS about 20 mL from the interface and about 20 mL of HBSS), and then centrifuged at 1090 rpm, 10 min, 20° C., with brake (270×g, GH 3.8A Rotor). After completing centrifugation, the cells are resuspended in 2-3 mL ACK Red blood cell lysis buffer (ammonium chloride potassium solution, Gibco, Life Technology) and incubated for 2-5 minutes at 20° C. Next, HBSS (40 mL) is added to the cells, and the sample is centrifuged at 270×g for 10 min at 20° C. The supernatant is decanted, and the cell pellet is resuspended in 5 mL AIM V® Medium (Gibco, Life Technology). Cell aggregates and debris are removed by filtering the cell solution through a BD Falcon 70 micron nylon cell strainer (BD Biosciences, San Jose, Calif.).
The number of viable cells is determined by counting with a Miltenyi FACS instrument (Miltenyi Biotec Inc., San Diego, Calif.) or by using a hemacytometer. For determining cell viability with a hemacytometer, the cells are diluted 1/10 in 0.4% trypan blue and HBSS (specifically, 50 microliter of trypan blue+40 microliter of HBSS+10 microliter of cell solution are added to a microfuge tube and mixed). Ten microliters of the diluted cells are then applied to the hemacytometer, and the number of viable PBMC are determined by microscopy.
The PBMC sample is then resuspended in 96-well plates at a concentration of 8×10^5 cells/well in 0.1 mL of AIM-V medium. Each compound is solubilized in DMSO to create a 3 mM stock solution. The stock solution is then further diluted with AIM-V medium to prepare the serial dilutions. The diluted compound (100 microliters) is then transferred to the PBMCs to achieve final compound concentrations of 10, 1, 0.1, 0.01, 0.001, 0.0001 micromolar. The plates also have both positive and negative controls. […]

Compound | MEC to Induce Cytokine IFN-alpha | MEC to Induce Cytokine IFN-gamma | MEC to Induce Cytokine TNF-alpha
CCCCc1nc2c(N)nc3ccccc3c2n1CCOCCNC(=O)c1ccc(CNC(=N)N)cc1 [Example 2, N-[2-[2-(4-amino-2-butyl-imidazo[4,5-c]quinolin-1-yl)ethoxy]ethyl]-4-(guanidinomethyl)benzamide dihydrochloride] | 1.2 µM | 1.2 µM | 3.7 µM
CCCc1nc2c(N)nc3ccccc3c2n1CCCCNC(=O)c1ccc(CNC(=N)N)cc1 [Example 3, N-[4-(4-amino-2-propyl-imidazo[4,5-c]quinolin-1-yl)butyl]-4-(guanidinomethyl)benzamide dihydrochloride] | 3.7 µM | 3.7 µM | 3.7 µM
CCCCc1nc2c(N)nc3ccccc3c2n1CCCCNC(=O)c1ccc(NC(=N)N)cc1 [Example 4, N-[4-(4-amino-2-butyl-imidazo[4,5-c]quinolin-1-yl)butyl]-4-guanidinobenzamide dihydrochloride] | 0.4 µM | 3.7 µM | 1.2 µM
CCCCc1nc2c(N)nc3ccccc3c2n1CCCCNC(=O)c1ccc(CNC(=N)N)cc1 [Example 5, N-[4-(4-amino-2-butyl-imidazo[4,5-c]quinolin-1-yl)butyl]-4-(guanidinomethyl)benzamide dihydrochloride] | 0.37 µM | 1.1 µM | –
